Assay results published in US9187467B2, “2-phenyl benzothiazole linked imidazole compounds as potential anticancer agents and process for the preparation thereof” (Council of Scientific and Industrial Research, priority 2012, dated 2015).
Where two headings read alike, the source gives them in different places.

Key:
[1] = system: NCI/ADR-RES; test: SRB anticancer assay, ovarian; format: cell-based, human; design: Log10GI50: unit not given here; conditions: for Log10GI50: present compounds
[2] = system: SN12C; test: SRB anticancer assay, renal; format: cell-based, human; design: Log10GI50: unit not given here
[3] = system: Leukemia cancer cell lines; test: SRB anticancer assay, panel result; format: cell-based, human
Summary of the method: (§1)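 Sulforhodamine B protein assay served as the read-out of cell viability or growth. Cells were exposed continuously to compound for 48 h, with dose–response measured at a minimum of five 10-fold-spaced concentrations.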

[4] = system: CNS cancer cell lines; test: SRB anticancer assay, panel result; format: cell-based, human
Summary of the method: as §1

[5] = system: Prostate cancer cell lines; test: SRB anticancer assay, panel result; format: cell-based, human
Summary of the method: as §1

[6] = system: Breast cancer cell lines; test: SRB anticancer assay, panel result; format: cell-based, human
Summary of the method: as §1

[7] = system: Ovarian cancer cell lines; test: SRB anticancer assay, panel result; format: cell-based, human
Summary of the method: as §1

[8] = system: Renal cancer cell lines; test: SRB anticancer assay, panel result; format: cell-based, human
Summary of the method: as §1

[9] = system: Colon cancer cell lines; test: SRB anticancer assay, panel result; format: cell-based, human
Summary of the method: as §1

[10] = system: Non-small cell lung cancer cell lines; test: SRB anticancer assay, panel result; format: cell-based, human
Summary of the method: as §1

[11] = system: Melanoma cancer cell lines; test: SRB anticancer assay, panel result; format: cell-based, human
Summary of the method: as §1

[12] = system: SK-MEL-2; test: SRB anticancer assay, melanoma; format: cell-based, human
[13] = system: SNB-19; test: SRB anticancer assay, CNS; format: cell-based, human; design: Log10GI50: unit not given here
[14] = system: RXF 393; test: SRB anticancer assay, renal; format: cell-based, human; design: Log10GI50: unit not given here
[15] = system: K562 (Leukemia) cells; test: Cell cycle distribution by flow cytometry; format: cell-based
Summary of the method: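 Compound-treated K562 cells analysed for cell-cycle distribution by flow cytometry; values given as % of cells.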

[16] = system: OVCAR-8; test: SRB anticancer assay, ovarian; format: cell-based, human; design: Log10GI50: unit not given here
[17] = system: HCT-116; test: SRB anticancer assay, colon; format: cell-based, human; conditions: Homo sapiens, HCT-116, 48 h
[18] = system: SNB-75; test: SRB anticancer assay, CNS; format: cell-based, human; design: Log10GI50: unit not given here
[19] = system: MCF7; test: SRB anticancer assay, breast; format: cell-based, human; conditions: Homo sapiens, MCF7, 48 h
[20] = system: MCF-7 (Breast carcinoma) cells; test: Cell cycle distribution by flow cytometry (FACS); format: cell-based; conditions: MCF-7 cells, 2 μM, 24h
Summary of the method: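 MCF-7 cells treated with compound at 2 μM for 24h, DMSO (0.25%) as control. Cell cycle distribution read by flow cytometry.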

[21] = system: HOP-92; test: SRB anticancer assay, non-small lung; format: cell-based, human; design: Log10GI50: unit not given here
[22] = system: OVCAR-4; test: SRB anticancer assay, ovarian; format: cell-based, human; conditions: Homo sapiens, OVCAR-4, 48 h

In the case of `COc1cc(OC)cc(-c2cncn2-c2ccc(-c3nc4cc(OC)c(OC)c(OC)c4s3)cc2)c1` [Compound 7d, 2-(4-(5-(3,5-Dimethoxyphenyl)-1H-imidazol-1-yl)phenyl)-5,6,7-trimethoxybenzo[d]thiazole], the GI50 ([1]; Homo sapiens, NCI/ADR-RES, 48 h) is reported as 11 µM, the Log10GI50 ([1]; NCI/ADR-RES (row head NCI/ADR-)) is reported as −4.96 and the Log10GI50 ([1]; listed as head printed RES (second line of NCI/ADR-RES)) is reported as −4.30. The GI50 ([2]; Homo sapiens, 48 h) was 31.9 µM, the Log10GI50 ([2]; present compounds) was −4.50 and the LC50 ([3]; Homo sapiens, Leukemia panel, 50% net cell death, read-out: mean graph midpoint value (MG_MID) of Log10 LC50 (converted)) was greater than 100 µM. The GI50 ([3]; Homo sapiens, Leukemia panel, read-out: mean graph midpoint value (MG_MID) of Log10 GI50 (converted)) was 3.72 µM, the GI50 ([3]; Homo sapiens, six leukemia cancer cell lines, exposure at least 48 h, read-out: GI50, range over the panel) was 2.43 to 7.14 µM and the “mean graph midpoint value (MG_MID) of log10 TGI” value ([3]; Leukemia panel, total inhibition of net cell growth) was greater than −4.0. The “mean graph midpoint value (MG_MID) of log10 TGI” value ([4]; CNS panel, total inhibition of net cell growth) was −4.11, the CC50 ([4]; Homo sapiens, CNS panel, 50% net cell death, read-out: mean graph midpoint value (MG_MID) of Log10 LC50 (converted)) was greater than 100 µM and the GI50 ([4]; Homo sapiens, CNS panel, read-out: mean graph midpoint value (MG_MID) of Log10 GI50 (converted)) was 12 µM. The GI50 ([4]; Homo sapiens, six CNS cancer cell lines, exposure at least 48 h, read-out: GI50, range over the panel) was 3.64 to 22.1 µM, the LC50 ([5]; Homo sapiens, Prostate panel, 50% net cell death, read-out: mean graph midpoint value (MG_MID) of Log10 LC50 (converted)) was greater than 100 µM and the GI50 ([5]; Homo sapiens, Prostate panel, read-out: mean graph midpoint value (MG_MID) of Log10 GI50 (converted)) was 10 µM. For the same molecule, the GI50 ([5]; Homo sapiens, two prostate cancer cell lines (PC-3, DU-145), exposure at least 48 h, read-out: GI50, range over the panel) was 3.17 to 31.1 µM, the “mean graph midpoint value (MG_MID) of log10 TGI” value ([5]; Prostate panel, total inhibition of net cell growth) was greater than −4.0 and the “mean graph midpoint value (MG_MID) of log10 TGI” value ([6]; Breast panel, total inhibition of net cell growth) was greater than −4.0. The CC50 ([6]; Homo sapiens, Breast panel, 50% net cell death, read-out: mean graph midpoint value (MG_MID) of Log10 LC50 (converted)) was greater than 100 µM, the GI50 ([6]; Homo sapiens, Breast panel, read-out: mean graph midpoint value (MG_MID) of Log10 GI50 (converted)) was 9.12 µM and the GI50 ([6]; Homo sapiens, six breast cancer cell lines, exposure at least 48 h, read-out: GI50, range over the panel) was 4.02 to 20.9 µM. It also gave an LC50 ([7]; Homo sapiens, Ovarian panel, 50% net cell death, read-out: mean graph midpoint value (MG_MID) of Log10 LC50 (converted)) greater than 100 µM, a GI50 ([7]; Homo sapiens, Ovarian panel, read-out: mean graph midpoint value (MG_MID) of Log10 GI50 (converted)) of 16.2 µM and a GI50 ([7]; Homo sapiens, seven ovarian cancer cell lines, exposure at least 48 h, read-out: GI50, range over the panel) of 6.07 to 49.9 µM. For the same molecule, the “mean graph midpoint value (MG_MID) of log10 TGI” value ([7]; Ovarian panel, total inhibition of net cell growth) was −4.08, the CC50 ([8]; Homo sapiens, Renal panel, 50% net cell death, read-out: mean graph midpoint value (MG_MID) of Log10 LC50 (converted)) was greater than 100 µM and the GI50 ([8]; Homo sapiens, Renal panel, read-out: mean graph midpoint value (MG_MID) of Log10 GI50 (converted)) was 14.8 µM. The GI50 ([8]; Homo sapiens, eight renal cancer cell lines, exposure at least 48 h, read-out: GI50, range over the panel) was 1.94 to 31.9 µM, the “mean graph midpoint value (MG_MID) of log10 TGI” value ([8]; Renal panel, total inhibition of net cell growth) was −4.03 and the “mean graph midpoint value (MG_MID) of log10 TGI” value ([9]; Colon panel, total inhibition of net cell growth) was greater than −4.0. The LC50 ([9]; Homo sapiens, Colon panel, 50% net cell death, read-out: mean graph midpoint value (MG_MID) of Log10 LC50 (converted)) was greater than 100 µM, the GI50 ([9]; Homo sapiens, Colon panel, read-out: mean graph midpoint value (MG_MID) of Log10 GI50 (converted)) was 9.12 µM and the GI50 ([9]; Homo sapiens, seven colon cancer cell lines, exposure at least 48 h, read-out: GI50, range over the panel) was 3.76 to 13.7 µM. The LC50 ([10]; Homo sapiens, Non-small cell lung panel, 50% net cell death, read-out: mean graph midpoint value (MG_MID) of Log10 LC50 (converted)) was greater than 100 µM, the GI50 ([10]; Homo sapiens, Non-small cell lung panel, read-out: mean graph midpoint value (MG_MID) of Log10 GI50 (converted)) was 15.1 µM and the GI50 ([10]; Homo sapiens, nine Non-small cell lung cancer cell lines, exposure at least 48 h, read-out: GI50, range over the panel) was 1.87 to 86.5 µM. For the same molecule, the “mean graph midpoint value (MG_MID) of log10 TGI” value ([10]; Non-small cell lung panel, total inhibition of net cell growth) was greater than −4.0, the LC50 ([11]; Homo sapiens, Melanoma panel, 50% net cell death, read-out: mean graph midpoint value (MG_MID) of Log10 LC50 (converted)) was greater than 100 µM and the GI50 ([11]; Homo sapiens, Melanoma panel, read-out: mean graph midpoint value (MG_MID) of Log10 GI50 (converted)) was 9.33 µM. The GI50 ([11]; Homo sapiens, nine melanoma cancer cell lines, exposure at least 48 h, read-out: GI50, range over the panel) was 2.85 to 31.6 µM, the “mean graph midpoint value (MG_MID) of log10 TGI” value ([11]; Melanoma panel, total inhibition of net cell growth) was −4.02 and the GI50 ([12]; Homo sapiens, SK-MEL-2, 48 h) was 6.16 µM. The Log10GI50 ([12]; SK-MEL-2, present compounds) was −5.21 M, the GI50 ([13]; Homo sapiens, SNB-19, 48 h) was 19.7 µM and the Log10GI50 ([13]; SNB-19, present compounds) was −4.70. The GI50 ([14]; Homo sapiens, RXF 393, 48 h) was 30.2 µM, the Log10GI50 ([14]; RXF 393, present compounds) was −4.52 and the “cells in G2/M phase” value [15] was 16%. For the same molecule, the GI50 ([16]; Homo sapiens, OVCAR-8, 48 h) was 13.4 µM, the Log10GI50 ([16]; OVCAR-8, present compounds) was −4.87 and the GI50 [17] was 3.76 µM. The GI50 ([18]; Homo sapiens, SNB-75, 48 h) was 15 µM, the Log10GI50 ([18]; SNB-75, present compounds) was −4.82 and the GI50 [19] was 4.02 µM. The “cells in G2/M phase” value [20] was 24%, the Log10GI50 ([21]; HOP-92, present compounds) was greater than −4.0 and the GI50 ([21]; Homo sapiens, HOP-92, 48 h) was greater than 100 µM. The GI50 [22] was 6.67 µM.
